A short description of data set [1]: Colour of anthocyanin solutions in McIlvaine buffer evaluated with Colour charts (Royal Horticulture Society). The format is physicochemical. The settings on record: for Number in Colour chart at pH 5.3: McIlvaine buffer pH 5.3; for Number in Colour chart at pH 5.3 / Number in Colour chart at pH 5.6 / Number in Colour chart at pH 6.0: greater number = bluer, A = bluest within a number; for Number in Colour chart at pH 5.6: McIlvaine buffer pH 5.6; for Number in Colour chart at pH 6.0: McIlvaine buffer pH 6.0. As for the experimental part:
Delphinidin 3,5-diglucoside, awobanin (delphinidin 3-(coumaroyl) glucoside-5-glucoside), malonyl-awobanin (delphinidin 3-(coumaroyl)glucoside-5-(malonyl) glucoside) were dissolved in McIlvaine buffer (pH 5.3, pH 5.6, pH 6.0) in concentrations of 0.1 mM, 0.3 mM, 0.5 mM, respectively, and colours of the solutions were evaluated using Colour charts (Royal Horticulture Society). Delphinidin 3,5-diglucoside can be obtained from its 3,5-diacetylglucoside form by removing the acetyl portion in alkaline hydrolysis reaction (Tetrahedron, 48, 4313–4326, 1992). Awobanin can be obtained from malonyl-awobanin by removing its 5-malonyl portion (Tetrahedron Lett. 24, 4863–4866, 1983). Malonyl-awobanin was obtained by extraction from plants using the method as set forth in Tetrahedron Lett. 24, 4863–4866, 1983. The greater the number in the Colour chart, the bluer the colour is. When the number is the same, symbol A represents the bluest colour.

The nature of data set [2]: Malonyl transferase activity of E. coli-expressed gene product, shisonin as substrate, HPLC detection. The format is biochemical. The protocol: Measurement of activity of malonyl transferase was conducted using reaction solution 100 μl (potassium phosphate of final concentration of 20 mM, pH 7.0, containing shisonin 10 μg, malonyl CoA 10 μg, and an enzyme sample to be measured, dissolved in 0.01% trifluoro acetic acid). After reaction was carried out at 30° C. for 20 minutes, the reaction was terminated by adding 200 μl of 0.05% TFA aqueous solution cooled on ice. Quantification of shisonin and malonyl-shisonin was conducted by reverse phase high performance liquid chromatography (DYNAMAX HPLC system) using a Shodex Asahipak ODP-50 4E column, and using a linear concentration gradient with 0.5% TFA solution as the solution and 0.5% TFA, 50% acetonitrile aqueous solution as the solution, such that concentration of the B solution was 45%, 45%, 55%, 100%, 100%, 45%, and 45%, at time 0, 3, 17, 18, 23, 24, and 30 minutes, respectively, after the start of separation, at a flow rate of 0.7 ml/min, using 50 μl of reaction solution, monitoring absorption at 520 nm. […]
Enzyme activity was measured using a supernatant (soluble fraction) obtained after centrifuging. […]
As in Example 7, using a plasmid constructed such that the PfMaT1 gene obtained in Example 9 can be expressed as a fusion protein fused with LacZ protein, the PfMaT1 gene was expressed in Escherichia coli as in Example 7, and enzyme activity was measured. […]

As for `O=C(/C=C/c1ccc(O)cc1)OC[C@H]1O[C@@H](Oc2cc3c(O[C@@H]4O[C@H](CO)[C@@H](O)[C@H](O)[C@H]4O)cc(O)cc3[o+]c2-c2cc(O)c(O)c(O)c2)[C@H](O)[C@@H](O)[C@@H]1O` [Awobanin, delphinidin 3-(coumaroyl) glucoside-5-glucoside], in data set [1] (0.1 mM), the “Number in Colour chart at pH 5.3” value is reported as 85C, the “Number in Colour chart at pH 5.6” value worked out at 85A and the “Number in Colour chart at pH 6.0” value amounted to 91B. In addition, in data set [1] (0.3 mM), the “Number in Colour chart at pH 5.3” value is listed as 86D and the “Number in Colour chart at pH 6.0” value was 91A.

As for `O=C(O)CC(=O)OC[C@H]1O[C@@H](Oc2cc(O)cc3[o+]c(-c4cc(O)c(O)c(O)c4)c(O[C@@H]4O[C@H](COC(=O)/C=C/c5ccc(O)cc5)[C@@H](O)[C@H](O)[C@H]4O)cc23)[C@H](O)[C@@H](O)[C@@H]1O` [Malonyl-awobanin, delphinidin 3-(coumaroyl)glucoside-5-(malonyl) glucoside], in data set [1] (0.1 mM), the “Number in Colour chart at pH 5.3” value stood at 85C, the “Number in Colour chart at pH 5.6” value is given as 91B and the “Number in Colour chart at pH 6.0” value is recorded as 91B. In data set [1] (0.3 mM), the “Number in Colour chart at pH 5.3” value came out at 92A, the “Number in Colour chart at pH 5.6” value is 93B and the “Number in Colour chart at pH 6.0” value is reported as 96C. Besides, in data set [1] (0.5 mM), the “Number in Colour chart at pH 5.3” value is 93B and the “Number in Colour chart at pH 6.0” value turned out to be 96A. In addition, the “Colour of solution compared among the three anthocyanins” value in data set [1] (all concentrations and pH, versus delphinidin 3,5-diglucoside and awobanin) is “the bluest”.

In the case of `OC[C@H]1O[C@@H](Oc2cc3c(O[C@@H]4O[C@H](CO)[C@@H](O)[C@H](O)[C@H]4O)cc(O)cc3[o+]c2-c2cc(O)c(O)c(O)c2)[C@H](O)[C@@H](O)[C@@H]1O` [Delphinidin 3,5-diglucoside], in data set [1] (0.1 mM), the “Number in Colour chart at pH 5.3” value is listed as 84C and the “Number in Colour chart at pH 5.6” value is on record as 84C. For the same molecule, in data set [1] (0.3 mM), the “Number in Colour chart at pH 5.3” value is 85A, the “Number in Colour chart at pH 5.6” value is 86D and the “Number in Colour chart at pH 6.0” value came to 88C. In addition, in data set [1] (0.5 mM), the “Number in Colour chart at pH 5.3” value turned out to be 86D, the “Number in Colour chart at pH 5.6” value is 90B and the “Number in Colour chart at pH 6.0” value worked out at 88B/C.

B1: SsMaT1: Salvia splendens malonyl transferase gene product (SEQ ID NO: 23), expressed in E. coli from pQE-30Xa-SsMaT1 (protein, listed as Salvia splendens)
chain: TTTTILETCHIPPPPAANDLSIPLSFFDIKWLHYHPVRRLLFYHHPSSKSQFLHTIVPHLKQSLSLALTHYLPVAGNLLYPSNTEKFPQLRYAAGDSVPVTIAESNSDFESLTGNHTRDADQFYDLLPPIPPIEEESDWKLINIFAVQITLFPGEGICIGFSNHHCLGDASSIVGFISAWGEINGIGGYEGFLSNHSDSLSLPIFDRSFINDPNKIDAIFWKVLSNMPLKTASFPLPTNSVSSTFLLRSSDIEKLKTATKSPASSFVAAAAFVWSCMVKSGDKSDENAPELFIMPADASGSVDPPMPENYFGNCIVSSVAQVERGKLAAEDGFAVAAEAIGGEIEGKLKNSDEILSGAENWMSDMFKCFGMSVLGVSGSPKFDLLKADFGWGKASKLEVLSIDGENHSMSLCSSSDFNGGLEVGLSLPSESMAAFEEVFSASMMAASGPASRSPALVEPL
modifications: possible His tag from pQE-30Xa
B1: the “Acyl transfer to shisonin with other acyl CoA substrates (new HPLC peak)” value in data set [2] (acetyl CoA, methylmalonyl CoA, or succinyl CoA in place of malonyl CoA) was “a new peak in addition to shisonin was observed”. Besides, in data set [2] (shisonin and malonyl CoA, 30° C., 20 minutes, pH 7.0, soluble extract of expressing Escherichia coli), the “Malonyl transferase activity (formation of malonyl-shisonin)” value is on record as “malonyl-shisonin was produced”.

Source of the values: US7186886B2, “Aliphatic acyl transferase genes” (International Flower Developments Proprietary Limited, priority 2000, dated 2007).
